# Reference: patent US20260373135A1, “Methods of Treatment with Tradipitant” (Vanda Pharmaceuticals Inc., priority 2022, published 2026)
# Read-outs that look alike come from different tables or passages of the source.
# Experiment: Four-period, two-way crossover open label single-dose food-effect pharmacokinetic study of tradipitant capsules in healthy participants (plasma tradipitant and metabolites M2, M3, M4, M8)
# Type: in vivo, human
# Details: for AUC(0-t), Least Squares Geometric Mean Ratio (%), Estimate / AUC(inf), Least Squares Geometric Mean Ratio (%), Estimate / Cmax, Least Squares Geometric Mean Ratio (%), Estimate: fed/fasted; for Tmax / AUC(0-t) / AUC(0-inf) / Cmax: plasma; for Tmax: median; for AUC(inf) Ratio of geometric means (170 mg / 85 mg) / Cmax Ratio of geometric means (170 mg / 85 mg): 85 mg vs 170 mg tradipitant
# Method: To evaluate the pharmacokinetics and effect of food on the bioavailability of single-dose capsules containing 170 mg tradipitant and 85 mg tradipitant, an open label, four-period, two-way crossover study is performed. The study comprises two cohorts, each of which conducts a screening phase and an evaluation phase. Cohort 1 only conducts Period 1 and Period 2 (FIG. 5), while Cohort 2 only conducts Period 3 and Period 4 (FIG. 6). It is possible for a participant in Cohort 1 to be a Participant in Cohort 2.
# The screening phase (Day-21 to Day-2, FIGS. 5-6) consists of a screening visit wherein an informed consent is obtained from potential participants, and their eligibility is initially assessed based on vital signs, body measurements, physical examination, ECG, clinical laboratory tests, drug and alcohol screen, and medical history. Clinical laboratory testing includes a pharmacogenetics sample for whole genome sequencing. Participants may include men or women aged 18-55 years, inclusive at the time of screening; having a Body Mass Index (BMI) of ≥18.0 and ≤39.0 kg/m^2 (BMI=weight (kg)/[height (m)]^2); and female participants of childbearing potential must be non-pregnant and non-lactating. Participants must be in good health as determined by a medical and psychiatric history, physical examination, electrocardiogram, and serum chemistry and hematology; willing to comply with study procedures and restrictions; willing to provide a pharmacogenetic sample; and have negative test result for selected substances of abuse at screening. Individuals may be excluded from participating based on history (within the 12 months prior to screening) of psychiatric disorders; current clinically significant cardiovascular, respiratory, neurologic, hepatic, hematopoietic, renal, gastrointestinal, or metabolic dysfunction unless currently controlled and stable; history of intolerance and/or hypersensitivity to other NK-1 receptor antagonists; clinically significant deviation from normal in clinical laboratory results, vital signs measurements, or physical examination findings at screening as determined by the clinical investigator; major surgery, trauma (including broken pelvis/legs), illness (e.g. sepsis), or immobility for 3 or more days within the past month; active cancer or cancer treatment within the past 6 months prior to screening; central venous catheter in place or within the past month; impaired liver function indicated by AST, ALT, or bilirubin >2 times the upper limit of normal, unless there is an isolated bilirubin >2 times the upper limit of normal due to Gilbert's syndrome; pregnancy or recent pregnancy (within 6 weeks prior to screening) or women who are breastfeeding; history of drug or alcohol abuse as defined in DSM-V, Diagnostic Criteria for Drug and Alcohol Abuse, within the 12 months prior to screening and/or regular consumption of alcoholic drinks (>2 drinks/day or >14 drinks/week); randomization in a previous tradipitant trial; and participants at risk of suicide, in the opinion of the Investigator. […]
# [1] = fasted conditions, 85 mg vs 170 mg
smiles,measurement,setting,value
"O=C(c1ccccc1Cl)c1cccnc1-c1nnn(Cc2cc(C(F)(F)F)cc(C(F)(F)F)c2)c1-c1ccncc1 [tradipitant, {2-[1-(3,5-Bistrifluoromethylbenzyl)-5-pyridin-4-yl-1H-[1,2,3]triazol-4-yl]-pyridin-3-yl}-(2-chlorophenyl)-methanone]",increase in Tmax in the fed state,"85 mg tradipitant oral, fed vs fasted",2 fold
same,"AUC(0-t), Least Squares Geometric Mean Ratio (%), Estimate",85 mg tradipitant oral,234.21%
same,"AUC(inf), Least Squares Geometric Mean Ratio (%), Estimate",85 mg tradipitant oral,263.08%
same,"Cmax, Least Squares Geometric Mean Ratio (%), Estimate",85 mg tradipitant oral,437.59%
same,"Cmax, Least Squares Geometric Mean Ratio (%), Estimate","85 mg tradipitant oral, listed as Tradipitant",473.59%
same,Tmax,"170 mg tradipitant oral, fasted",1.50 (15) hr
same,"AUC(0-t), Least Squares Geometric Mean Ratio (%), Estimate",170 mg tradipitant oral,328.21%
same,"AUC(inf), Least Squares Geometric Mean Ratio (%), Estimate",170 mg tradipitant oral,381.70%
same,"Cmax, Least Squares Geometric Mean Ratio (%), Estimate",170 mg tradipitant oral,703.87%
same,Tmax,"170 mg tradipitant oral, fed",4.00 (15) hr
same,dose proportionality of AUC(inf),[1],close to dose proportional
same,dose proportionality of Cmax,[1],less than dose proportionality
same,AUC(inf) Ratio of geometric means (170 mg / 85 mg),fasted conditions,1.92
same,Cmax Ratio of geometric means (170 mg / 85 mg),fasted conditions,1.32
same,AUC(inf) Ratio of geometric means (170 mg / 85 mg),fed conditions,2.30
same,Cmax Ratio of geometric means (170 mg / 85 mg),fed conditions,1.93
same,"effect of fed state on absorption (extent/rate, Tmax)","fed vs fasted, both 170 mg and 85 mg doses",an increase in the extent and a decrease in the rate of absorption
same,AUC(0-t),"human, po, 85 mg, 85 mg tradipitant oral, fasted, ln-transformed, read-out: AUC(0-t), Least Squares Geometric Mean, Fasted",1650 ng·h/mL
same,AUC(0-inf),"human, po, 85 mg, 85 mg tradipitant oral, fasted, ln-transformed, read-out: AUC(inf), Least Squares Geometric Mean, Fasted",1790 ng·h/mL
same,Cmax,"human, po, 85 mg, 85 mg tradipitant oral, fasted, ln-transformed, read-out: Cmax, Least Squares Geometric Mean, Fasted",84.7 ng/mL
same,AUC(0-inf),"human, po, 85 mg, 85 mg tradipitant oral, fasted, geometric mean [geometric % CV], read-out: AUC(inf)",1840 ng·h/mL
same,Cmax,"human, po, 85 mg, 85 mg tradipitant oral, fasted, geometric mean [geometric % CV], read-out: Cmax",84.7 ng/mL
same,Tmax,"human, po, 85 mg, 85 mg tradipitant oral, fasted, read-out: Tmax",2 h
same,AUC(0-t),"human, po, 85 mg, 85 mg tradipitant oral, fed, ln-transformed, read-out: AUC(0-t), Least Squares Geometric Mean, Fed",3860 ng·h/mL
same,AUC(0-inf),"human, po, 85 mg, 85 mg tradipitant oral, fed, ln-transformed, read-out: AUC(inf), Least Squares Geometric Mean, Fed",4700 ng·h/mL
same,Cmax,"human, po, 85 mg, 85 mg tradipitant oral, fed, ln-transformed, read-out: Cmax, Least Squares Geometric Mean, Fed",401 ng/mL
same,AUC(0-inf),"human, po, 85 mg, 85 mg tradipitant oral, fed, geometric mean [geometric % CV], read-out: AUC(inf)",4520 ng·h/mL
same,Cmax,"human, po, 85 mg, 85 mg tradipitant oral, fed, geometric mean [geometric % CV], read-out: Cmax",401 ng/mL
same,Tmax,"human, po, 85 mg, 85 mg tradipitant oral, fed, read-out: Tmax",4 h
same,AUC(0-t),"human, po, 170 mg, 170 mg tradipitant oral, fasted, ln-transformed, read-out: AUC(0-t), Least Squares Geometric Mean, Fasted",2800 ng·h/mL
same,AUC(0-inf),"human, po, 170 mg, 170 mg tradipitant oral, fasted, ln-transformed, read-out: AUC(inf), Least Squares Geometric Mean, Fasted",2730 ng·h/mL
same,Cmax,"human, po, 170 mg, 170 mg tradipitant oral, fasted, ln-transformed, read-out: Cmax, Least Squares Geometric Mean, Fasted",111 ng/mL
same,AUC(0-inf),"human, po, 170 mg, 170 mg tradipitant oral, fasted, geometric mean [geometric % CV], read-out: AUC(inf)",3530 ng·h/mL
same,Cmax,"human, po, 170 mg, 170 mg tradipitant oral, fasted, geometric mean [geometric % CV], read-out: Cmax",112 ng/mL
same,Tmax,"human, po, 170 mg, 170 mg tradipitant oral, fasted, read-out: Tmax",1.5 h
same,AUC(0-t),"human, po, 170 mg, 170 mg tradipitant oral, fed, ln-transformed, read-out: AUC(0-t), Least Squares Geometric Mean, Fed",9180 ng·h/mL
same,AUC(0-inf),"human, po, 170 mg, 170 mg tradipitant oral, fed, ln-transformed, read-out: AUC(inf), Least Squares Geometric Mean, Fed",10400 ng·h/mL
same,Cmax,"human, po, 170 mg, 170 mg tradipitant oral, fed, ln-transformed, read-out: Cmax, Least Squares Geometric Mean, Fed",778 ng/mL
same,AUC(0-inf),"human, po, 170 mg, 170 mg tradipitant oral, fed, geometric mean [geometric % CV], read-out: AUC(inf)",10400 ng·h/mL
same,Cmax,"human, po, 170 mg, 170 mg tradipitant oral, fed, geometric mean [geometric % CV], read-out: Cmax",774 ng/mL
same,Tmax,"human, po, 170 mg, 170 mg tradipitant oral, fed, read-out: Tmax",4 h
